Assay results: ChEMBL document CHEMBL1201862, “PubChem BioAssay data set” (2004)
Activity calls are given as the source filed them.

Columns and labels:
cells [1] = assay type: functional, cell-based
cells [2] = assay type: functional, cell-based; remark: listed apart in the source
Prothrombin = Prothrombin (Homo sapiens, UniProt P00734); assay: Thrombin 1536 HTS Dose Response Confirmation. [Related pubchem assays: 1046 (Thrombin 1536 HTS; hits were confirmed in this assay)]; assay type: functional
[3] = target: T1, DNA repair protein RAD52 homolog (Homo sapiens, UniProt P43351); assay type: functional, biochemical
T1 sequence (P43351 whole entry): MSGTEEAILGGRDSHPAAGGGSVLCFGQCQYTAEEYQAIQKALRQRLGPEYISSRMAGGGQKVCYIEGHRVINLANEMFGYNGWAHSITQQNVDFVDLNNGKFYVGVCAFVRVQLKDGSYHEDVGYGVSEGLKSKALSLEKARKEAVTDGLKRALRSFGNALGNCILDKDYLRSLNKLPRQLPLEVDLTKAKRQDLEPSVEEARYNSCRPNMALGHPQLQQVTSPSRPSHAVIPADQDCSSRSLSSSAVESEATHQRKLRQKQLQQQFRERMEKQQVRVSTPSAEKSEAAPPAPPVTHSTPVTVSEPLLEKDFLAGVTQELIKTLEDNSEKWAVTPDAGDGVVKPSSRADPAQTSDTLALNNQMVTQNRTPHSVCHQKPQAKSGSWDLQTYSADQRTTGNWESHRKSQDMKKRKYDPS

[4] = A549 cell cytotoxicity, dose response, cytotoxicity control, plate reader, cherry-pick, antagonist series (AID 743412); assay type: functional, cell-based
[5] = HepG2 cell cytotoxicity, dose response, cytotoxicity control, plate reader, cherry-pick, antagonist series (AID 743416); assay type: functional, cell-based
[6] = HEK293 cell cytotoxicity, dose response, cytotoxicity control, plate reader, cherry-picked samples (AID 743446); assay type: functional, cell-based
[7] = growth suppression of PTEN-null colon cells, dose response, cell-based, HCT116 PTEN knockout (AID 1047); assay type: functional;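 also: HCT116 colon tumor cells with PTEN knocked out; cells exposed to compound for 60 hours before readout; potency for loss of cell viability measured by luminescence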
[8] = growth suppression of beta-catenin-knockout colon cells, dose response, cell-based, HCT116, human colon tumor (AID 1045); assay type: functional;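 also: HCT116 colon tumor cells with beta catenin knocked out; cells exposed to compound for 60 hours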
[9] = Luminescence Cell-Based Dose Retest to Confirm Inhibitors of Cancer Stem Cells. [Related pubchem assays (depositor defined):AID2717, AID2721]; assay type: functional; conditions: Homo sapiens
Vero = assay: cells; assay type: functional; conditions: Chlorocebus sabaeus
[10] = inhibitors of HIV Env-driven cell fusion, dose response, cherry-pick (AID 652057); assay type: functional, cell-based
[11] = off-target signal loss in HeLa-CEM21 co-culture – HeLa F-luc CTL cells, cherry-picked, counter-screen for HIV-1 Env fusion inhibitor project, dose response (AID 652040); assay type: functional, cell-based;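 also: potency for signal decrease marking cytotoxic or nonspecific inhibition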
[12] = inhibitors of clade B AD8 Env fusion, dose response, cell-based, cherry-pick (AID 652062); assay type: functional;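 also: luciferase signal from cell-cell fusion driven by HIV-1 clade B AD8 Env; potency is for inhibitors of fusion seen as a drop in luminescence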
[13] = tested on: Streptococcus sp. 'group A'; assay: growth inhibition of control SK(-) GAS strain, dose response, counter-screen for streptokinase expression inhibitor project, luminescence, kanamycin, BacTiterGlo, confirmation (AID 1900); assay type: functional, organism-based
[14] = inhibitors of intracellular T. cruzi replication, confirmation, NIH3T3 host cells, beta-gal luminescence (AID 2044); assay type: functional, cell-based;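 also: intracellular parasites grown in NIH/3T3 mouse fibroblasts as host cells; luminescent beta-galactosidase reporter signal from transgenic T. cruzi replicating inside host cells; inhibitors lower the luminescence signal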
[15] = cytotoxicity toward NIH3T3 fibroblasts, dose response, counter-screen, cell-based, ATP luminescence, mouse fibroblasts (AID 2010); assay type: functional;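 also: cells exposed to compound for about 90 hours before reading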
Streptococcus = assay: Group A Streptococcus viability loss, dose response, counter-screen for streptokinase expression inhibitor project, luminescence, BacTiterGlo (AID 1915); assay type: functional, organism-based;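 also: potency for reduction of bacterial viability or growth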
Large T antigen = Large T antigen (Simian virus 40, UniProt P03070); assay type: functional, Betapolyomavirus macacae;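 also: Confirmatory-stage PubChem screen for compounds that inhibit SV40 T antigen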
[16] = target: FAD-linked sulfhydryl oxidase ALR (Homo sapiens, UniProt P55789); assay: inhibitors of human ALR sulfhydryl oxidase, dose response, biochemical, H2O2 detection, luminescence, cherry-pick (AID 493248)
[17] = target: T2, Methionyl-tRNA synthetase, putative (Trypanosoma brucei brucei, UniProt Q38C91); assay type: functional, Trypanosoma brucei brucei strain 927/4 GUTat10.1
T2 sequence (Q38C91 whole entry): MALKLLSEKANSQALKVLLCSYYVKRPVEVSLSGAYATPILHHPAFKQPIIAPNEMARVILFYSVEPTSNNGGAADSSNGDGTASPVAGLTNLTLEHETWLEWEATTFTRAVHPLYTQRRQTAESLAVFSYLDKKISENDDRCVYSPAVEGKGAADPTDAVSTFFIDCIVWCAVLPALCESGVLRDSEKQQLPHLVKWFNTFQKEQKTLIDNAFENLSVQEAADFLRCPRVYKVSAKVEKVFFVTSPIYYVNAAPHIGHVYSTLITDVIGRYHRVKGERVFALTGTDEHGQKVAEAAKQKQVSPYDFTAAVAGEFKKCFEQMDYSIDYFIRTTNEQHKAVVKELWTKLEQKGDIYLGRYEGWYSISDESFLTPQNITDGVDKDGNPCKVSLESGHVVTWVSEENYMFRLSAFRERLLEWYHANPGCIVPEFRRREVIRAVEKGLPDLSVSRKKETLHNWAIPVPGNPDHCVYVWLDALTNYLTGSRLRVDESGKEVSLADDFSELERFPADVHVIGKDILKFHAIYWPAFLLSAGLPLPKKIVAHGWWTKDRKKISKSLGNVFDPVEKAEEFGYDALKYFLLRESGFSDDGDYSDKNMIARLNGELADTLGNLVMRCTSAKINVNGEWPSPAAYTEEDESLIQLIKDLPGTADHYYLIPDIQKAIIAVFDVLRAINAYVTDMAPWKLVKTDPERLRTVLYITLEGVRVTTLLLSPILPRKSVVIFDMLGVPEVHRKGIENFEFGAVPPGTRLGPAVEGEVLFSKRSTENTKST

[18] = Counterscreen for inhibitors of Trypanosoma brucei methionyl tRNA synthetase (MetRS): Luminescence-based cell-based high throughput dose response assay to identify compounds that are cytotoxic to Jurkat human T lymphocyte cells.; assay type: functional
[19] = target: T2, Methionyl-tRNA synthetase, putative; assay type: functional, Trypanosoma brucei brucei strain 927/4 GUTat10.1; remark: listed apart in the source
[20] = ZM109 Env clade C HIV-1 fusion inhibitors, dose response, HeLa effector, CEM target cells, luciferase, cherry-pick (AID 652058); assay type: functional, cell-based
[21] = Luminescence Cell-Based Dose Confirmation HTS to Identify Activators of 5'UTR Stem-Loop Driven Alpha-Synuclein mRNA Translation in H4 Neuroglioblastoma Cells. [Related pubchem assays: 1829 (Project Summary), 1814 (Primary HTS)]; assay type: functional
[22] = Luminescence Cell-Based Dose Response HTS to Identify Activators of Luciferase Translation or Activity in H4 […] Cells. [Related pubchem assays: 1829 (Project Summary), 1814 (Primary HTS)]; assay type: functional
H4 = assay: Luminescence Cell-Based Dose Response HTS to Identify Activators of 5'UTR Stem-Loop Driven Prion Protein mRNA Translation in H4 Neuroglioblastoma Cells. [Related pubchem assays: 1829 (Project Summary), 1814 (Primary HTS)]; assay type: functional; conditions: Homo sapiens

Sequence of Large T antigen (P03070 whole entry): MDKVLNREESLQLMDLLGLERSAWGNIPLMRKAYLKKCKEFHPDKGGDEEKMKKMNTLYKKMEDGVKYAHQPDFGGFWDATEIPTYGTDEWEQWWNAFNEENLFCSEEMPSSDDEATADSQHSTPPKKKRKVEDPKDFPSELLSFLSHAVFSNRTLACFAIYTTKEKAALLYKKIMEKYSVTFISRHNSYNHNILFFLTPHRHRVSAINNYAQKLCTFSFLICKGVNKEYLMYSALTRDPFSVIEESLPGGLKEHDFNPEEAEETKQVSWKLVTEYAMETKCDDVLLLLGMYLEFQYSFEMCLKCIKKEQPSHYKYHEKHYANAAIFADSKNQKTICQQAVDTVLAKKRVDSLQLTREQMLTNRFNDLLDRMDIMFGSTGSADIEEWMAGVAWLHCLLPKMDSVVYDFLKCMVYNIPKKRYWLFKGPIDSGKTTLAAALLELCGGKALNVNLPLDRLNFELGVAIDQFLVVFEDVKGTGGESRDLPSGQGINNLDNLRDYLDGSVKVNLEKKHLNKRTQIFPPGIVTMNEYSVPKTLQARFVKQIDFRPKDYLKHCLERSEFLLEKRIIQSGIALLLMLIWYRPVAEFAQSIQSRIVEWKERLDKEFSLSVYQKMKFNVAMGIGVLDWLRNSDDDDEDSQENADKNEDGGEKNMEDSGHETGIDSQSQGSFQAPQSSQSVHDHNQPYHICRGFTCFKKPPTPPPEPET
Sequence of FAD-linked sulfhydryl oxidase ALR (P55789 whole entry): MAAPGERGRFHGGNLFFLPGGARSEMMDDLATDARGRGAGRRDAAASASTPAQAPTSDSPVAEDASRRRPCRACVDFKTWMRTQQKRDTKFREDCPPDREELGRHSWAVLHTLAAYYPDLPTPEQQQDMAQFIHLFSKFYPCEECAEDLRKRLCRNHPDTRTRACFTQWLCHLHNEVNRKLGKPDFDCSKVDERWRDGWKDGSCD

Compound: CC(Cc1ccccc1)NC(=O)/C=C/C(=O)O (stereo not given)
- IC50 (cells [1]): > 29.9 µM (inactive)
- EC50 (cells [2]): > 29.9 µM (inactive)

Compound: Cc1cc(C(=O)CSc2nnnn2C)c(C)n1-c1cccc(F)c1
- IC50 (Prothrombin): > 50 µM (not active)

Compound: NCc1cc2c3c(c1)CCCN3CCC2
- AC50 [3]: 1.92 µM (active)

Compound: COc1ccccc1NC(=O)N1CCCC1C(=O)NC1CCCCC1 (stereo not given)
- IC50 (Prothrombin): > 50 µM (not active)

Compound: COc1ccccc1N1CCN(C(=O)c2sc3nc(-c4ccc(F)cc4)cn3c2C)CC1
- AC50 [4]: > 52 µM (inactive)
- AC50 [5]: 43.3 µM (active)
- AC50 [6]: 37.1 µM (active)

Compound: Cc1cc2nc(-c3ccc(SCC(=O)Nc4nccs4)nc3)[nH]c2cc1C
- EC50 [7]: 19.6 µM (active)
- EC50 [8]: 33.3 µM (active)

Compound: COc1ccc(C)cc1N1C(=O)C(c2ccccc2)C(c2nc3ccccc3s2)=C1N (stereo not given)
- EC50 [7]: 3.06 µM (active)
- EC50 [8]: 2.48 µM (active)
- AC50 [9]: 4.88 µM (active)
- CC50 (Vero): 6.15 µM (active)

Compound: CCN(CC)CCCNC(=O)c1csc(Nc2cccc3ccccc23)n1
- AC50 [3]: 21.9 µM (active)

Compound: CC(C)N(Cc1nc(-c2ccccc2)no1)C(=O)CN(C)S(=O)(=O)c1ccc(Br)cc1
- AC50 [10]: 49.9 µM (active)
- AC50 [11]: 60.4 µM (active)
- AC50 [12]: 20.1 µM (active)

Compound: O=C(CNC(=O)OCc1ccccc1)Nc1ccc(Br)cc1C(=O)c1ccccc1Cl
- EC50 [7]: 44.5 µM (active)
- EC50 [8]: 45.4 µM (active)

Compound: COc1ccccc1/C=C/c1ccc2cccc(O)c2n1
- EC50 [13]: 1.52 µM (active)
- EC50 [14]: 2.74 µM (active)
- EC50 [15]: > 60 µM (not active)
- EC50 (Streptococcus): 6 µM (active)
- CC50 (Vero): > 25 µM (active)

Compound: NC(=O)Nc1ccc(Nc2ccccc2)cc1
- IC50 (Large T antigen): 7.83 µM (active)
- AC50 [16]: 0.916 µM (active)

Compound: C#CCSc1nncn1C(=O)/C=C/c1ccccc1
- IC50 (Prothrombin): 0.294 µM (active)

Compound: CC(C)(C)[C@H]1C=C(C(=O)NCc2nc3ccccc3[nH]2)O[C@@H](OCCCCO)C1
- IC50 [17]: 6.66 µM (active)
- IC50 [18]: 83.3 µM (inactive)
- IC50 [19]: 2.63 µM (active)

Compound: COc1ccc(C2C=C(c3ccc(Br)cc3)Nc3nc(N4C(=O)CCC4=O)nn32)cc1 (stereo not given)
- IC50 (Prothrombin): > 50 µM (not active)

Compound: O=C(Nc1ccc(O)cc1)c1ccc(NC(=O)C2CCCO2)cc1 (stereo not given)
- IC50 (Large T antigen): 11.1 µM (active)

Compound: O=C(Nc1ccc(CN2CCS(=O)(=O)CC2)cc1)c1ccc(C(F)(F)F)cc1
- AC50 [11]: > 70 µM (inactive)
- AC50 [12]: 3.22 µM (active)

Compound: CSCc1nc2scc(-c3ccccc3)c2c(=O)[nH]1
- IC50 (Prothrombin): > 50 µM (not active)

Compound: Cc1cc(C(=O)COc2cccc(-n3cnnn3)c2)c(C)n1-c1ccccc1
- EC50 [7]: 48.3 µM (active)
- EC50 [8]: 77.4 µM (active)

Compound: Cc1ccc(CNC(=O)CSc2n[nH]c3c4cc(F)ccc4nc-3n2)cc1
- IC50 [17]: 119 µM (inactive)
- IC50 [18]: 83.3 µM (inactive)
- IC50 [19]: 0.785 µM (active)

Compound: CCN1C(=O)C(CC(=O)Nc2ccc(OC)cc2)N(CCc2ccc(F)cc2)C1=S (stereo not given)
- IC50 [17]: 11.4 µM (inactive)
- IC50 [18]: 61.1 µM (inactive)
- IC50 [19]: 6.2 µM (active)

Compound: Cc1ccccc1CCN(C(=O)c1csnn1)C(C(=O)NC1CCCC1)c1ccncc1 (stereo not given)
- AC50 [10]: 0.548 µM (active)
- AC50 [20]: 0.742 µM (active)
- AC50 [11]: 1.13 µM (active)
- AC50 [12]: < 0.26 µM (active)

Compound: O=C(CNC(=O)c1ccccc1F)OCC(=O)c1c[nH]c2ccccc12
- IC50 (cells [1]): > 29.9 µM (inactive)
- EC50 (cells [2]): > 29.9 µM (inactive)

Compound: OC(c1cc(F)cc(Cl)c1)c1nc(-c2ccc(Cl)cc2)c[nH]1 (stereo not given)
- IC50 [17]: 15 µM (inactive)
- IC50 [18]: 56.3 µM (inactive)
- IC50 [19]: 6.73 µM (active)

Compound: Sc1nnc(COc2ccccc2)n1/N=C/C(Cl)=C/c1ccccc1
- EC50 [21]: 6.85 µM (active)
- EC50 [22]: 12.6 µM (active)
- EC50 (H4): > 120 µM (not active)
- AC50 [9]: 2.32 µM (active)
- CC50 (Vero): > 25 µM (active)

Compound: CC1CCN(S(=O)(=O)c2cc(C(=O)N3CCN(c4ccccc4)CC3)ccc2Br)CC1
- AC50 [10]: 40.3 µM (active)
- AC50 [20]: 3.22 µM (active)
- AC50 [12]: 4.92 µM (active)

Compound: CC(C)CC#Cc1ccc2c(c1)O[C@@H](CN(C)S(=O)(=O)c1cccc(F)c1)[C@@H](C)CN([C@@H](C)CO)S2(=O)=O
- AC50 [10]: 7.21 µM (active)
- AC50 [20]: 8.81 µM (active)
- AC50 [12]: 11.6 µM (active)

Compound: C[C@H](CO)N1C[C@H](C)[C@H](CN(C)S(=O)(=O)c2ccccc2F)Oc2ncc(/C=C/c3ccccc3)cc2C1=O
- AC50 [10]: 3.51 µM (active)
- AC50 [20]: 10.2 µM (active)
- AC50 [12]: 10.1 µM (active)

Compound: COc1cccc(S(=O)(=O)N(C)C[C@@H]2Oc3cc(C#CCC(C)C)ccc3S(=O)(=O)N([C@@H](C)CO)C[C@@H]2C)c1
- AC50 [10]: 20 µM (active)
- AC50 [20]: 46.1 µM (active)
- AC50 [12]: 25.7 µM (active)

Compound: N=C(N)N/N=C/c1ccc(OCc2ccccc2Cl)cc1
- EC50 [14]: 0.539 µM (active)
- EC50 [7]: 4.14 µM (active)
- EC50 [15]: > 60 µM (not active)
- EC50 [8]: 4.04 µM (active)
- AC50 [3]: 16.6 µM (active)
